Assay results published in patent US9981972B2, “N-hydroxy bicyclic hydantoin carbamates as tools for identification of serine hydrolase targets” (ABIDE THERAPEUTICS, INC., priority 2014, dated 2018).
“Also recorded” adds a separate entry of the source.

Tests used:
LYPLA1 = target: T1, LYPLA1 (Mus musculus, UniProt P97823); experiment: Gel-based competitive ABPP in vitro, mouse brain membrane proteome; format: biochemical; settings: for inhibition at 0.1 µM: 0.1 μM compound, read-out: LYPLA1 % INH 0.1 μM; for inhibition at 0.1 µM / inhibition at 1 µM / inhibition at 10 µM / inhibition at 100 µM: 30 min, one replicate; for inhibition at 1 µM: 1 μM compound, read-out: LYPLA1 % INH 1 μM; for inhibition at 10 µM: 10 μM compound, read-out: LYPLA1 % INH 10 μM; for inhibition at 100 µM: 100 μM compound, read-out: LYPLA1 % INH 100 μM
T1 construct: a complex proteome endogenously expressing LYPLA1/2 was incubated with test compound; from tissue; host or cells: mouse brain, membrane fraction
T1 sequence (P97823 whole entry): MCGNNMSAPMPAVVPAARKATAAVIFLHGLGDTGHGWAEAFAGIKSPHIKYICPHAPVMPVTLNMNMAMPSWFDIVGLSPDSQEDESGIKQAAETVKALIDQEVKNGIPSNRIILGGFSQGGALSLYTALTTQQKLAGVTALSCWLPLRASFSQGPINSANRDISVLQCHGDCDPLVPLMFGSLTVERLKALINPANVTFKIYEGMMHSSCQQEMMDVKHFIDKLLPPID
Procedure, shortened: (§1)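 Mouse brain membrane proteome (1 mg/mL in DPBS) was treated with compound (0.1-100 μM) for 30 min at 37 °C, then labeled with FP-Rh (2 μM final, 30 min, 25 °C). Bands were resolved by SDS-PAGE and scanned in-gel, with inhibition taken from band optical density versus DMSO. Targets counted as active or anti-targets at ≥50% inhibition.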

LYPLA2 = target: T2, LYPLA2 (Mus musculus, UniProt Q9WTL7); experiment: as above; format: biochemical; settings: for inhibition at 0.1 µM: 0.1 μM compound, read-out: LYPLA2 % INH 0.1 μM; for inhibition at 0.1 µM / inhibition at 1 µM / inhibition at 10 µM / inhibition at 100 µM: 30 min, one replicate; for inhibition at 1 µM: 1 μM compound, read-out: LYPLA2 % INH 1 μM; for inhibition at 10 µM: 10 μM compound, read-out: LYPLA2 % INH 10 μM; for inhibition at 100 µM: 100 μM compound, read-out: LYPLA2 % INH 100 μM
T2 construct: a complex proteome endogenously expressing LYPLA1/2 was incubated with test compound; from tissue; host or cells: mouse brain, membrane fraction
T2 sequence (Q9WTL7 whole entry): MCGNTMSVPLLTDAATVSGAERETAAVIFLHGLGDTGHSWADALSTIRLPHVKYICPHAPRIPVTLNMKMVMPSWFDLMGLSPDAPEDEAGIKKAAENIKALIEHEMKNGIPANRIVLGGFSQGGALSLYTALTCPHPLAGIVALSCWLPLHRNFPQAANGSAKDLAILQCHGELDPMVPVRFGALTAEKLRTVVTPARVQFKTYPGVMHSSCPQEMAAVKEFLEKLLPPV
Procedure, shortened: as §1

mABHD3 = target: T3, mABHD3 (Mus musculus, UniProt Q91ZH7); experiment: Gel-based competitive ABPP, recombinant enzyme in transfected HEK293T cell lysates; format: biochemical; settings: transfected HEK293T lysates, read-out: mABHD3 in vitro potency (IC50)
T3 construct: expressed in transfected cells; host or cells: HEK293T, transient transfection, pCMV-Sport6; lysate used in vitro
T3 sequence (Q91ZH7 1-411): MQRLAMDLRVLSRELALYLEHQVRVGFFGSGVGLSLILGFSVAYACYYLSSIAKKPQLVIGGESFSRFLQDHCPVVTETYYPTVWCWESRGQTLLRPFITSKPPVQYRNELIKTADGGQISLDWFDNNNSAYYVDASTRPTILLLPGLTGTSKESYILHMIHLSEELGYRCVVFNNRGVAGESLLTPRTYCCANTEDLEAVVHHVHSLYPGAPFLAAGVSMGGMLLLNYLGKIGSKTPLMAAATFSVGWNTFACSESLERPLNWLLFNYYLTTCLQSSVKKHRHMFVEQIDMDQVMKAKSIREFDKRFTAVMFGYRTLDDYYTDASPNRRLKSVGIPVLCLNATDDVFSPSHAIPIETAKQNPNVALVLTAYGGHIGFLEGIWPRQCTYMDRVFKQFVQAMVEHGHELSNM
Method: (§2) HEK293T cells were seeded at 2×10^5 per well on 6 well plates and grown for 48 h. They were then transfected with mABHD3 (pCMV-Sport6), hABHD4 (pcDNA3.1/myc-his), hPPT1 (pCMV6-XL5), or hPPT1 S115A (pCMV6-XL5), by incubating 0.5 μg of DNA with 3 μL of PEI MAX (1 mg/mL, Polysciences, Inc) in serum-free DMEM for 30 min, then adding them to cells. After 48 h cells were either treated with compound in situ, as described above, or harvested for in vitro studies. The […] PPT1 mutation was introduced using QuikChange II Site Directed Mutagenesis Kit (Agilent) with the following primers: […]
Human ABHD3 and ABHD4 were recombinantly expressed by transient transfection in HEK293T cells, and the cell lysates were combined to provide a convenient assay for monitor inhibition of both enzymes by gel-based ABPP (see FIG. 8A).

ABHD4 = target: T4, ABHD4 (Homo sapiens, UniProt Q8TB40); experiment: as above; format: biochemical; design: myc-his; expressed in transfected cells; host or cells: HEK293T, transient transfection, pcDNA3.1/myc-his; lysate used in vitro; settings: recombinant, transfected HEK293T lysates; read-out: hABHD4 in vitro potency (IC50)
T4 sequence (Q8TB40 1-342): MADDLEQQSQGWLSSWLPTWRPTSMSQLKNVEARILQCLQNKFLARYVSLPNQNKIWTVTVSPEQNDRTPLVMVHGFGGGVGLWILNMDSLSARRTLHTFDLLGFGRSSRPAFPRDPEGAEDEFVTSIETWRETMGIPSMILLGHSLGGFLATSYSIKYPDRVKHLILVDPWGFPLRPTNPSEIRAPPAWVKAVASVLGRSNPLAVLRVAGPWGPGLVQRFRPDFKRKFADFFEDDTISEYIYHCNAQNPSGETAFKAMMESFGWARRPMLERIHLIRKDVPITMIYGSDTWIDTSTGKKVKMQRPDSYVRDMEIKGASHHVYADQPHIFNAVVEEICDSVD
Method: as §2
Human ABHD3 and ABHD4 were recombinantly expressed by transient transfection in HEK293T cells, and the cell lysates were combined to provide a convenient assay for monitor inhibition of both enzymes by gel-based ABPP (see FIG. 8A). […]

[1] = tested on: FP-sensitive SHs in the mouse brain membrane proteome; experiment: Gel-based competitive ABPP in vitro, mouse brain membrane proteome, anti-targets; format: biochemical; settings: for Anti-target(s) 0.1 μM: SHs with at least 50% inhibition at 0.1 μM compound; for Anti-target(s) 1 μM: SHs with at least 50% inhibition at 1 μM compound; for Anti-target(s) 10 μM: SHs with at least 50% inhibition at 10 μM compound; for Anti-target(s) 100 μM: SHs with at least 50% inhibition at 100 μM compound
Procedure, shortened: as §1

human SHs = experiment: ABPP-SILAC analysis to identify SH targets of Compound 5; format: biochemical
Text: Compound 5 was selected for analysis by mass spectrometry (MS)-based ABPP methods to assess the range of SHs targeted by N-Hydroxy bicyclic hydantoin carbamates.

human LYPLA1 = target: T5, human LYPLA1 (Homo sapiens, UniProt O75608); experiment: IC50 by gel-based competitive ABPP in vitro, soluble HeLa cell proteome; format: biochemical; settings: human LYPLA isoform, three replicates; Table 2 prints no unit, nM; read-out: LYPLA1 IC50
T5 construct: endogenous human LYPLA1/2 in a HeLa soluble proteome; endogenous in cells; host or cells: HeLa (soluble proteome in vitro; cultured cells in situ)
T5 sequence (O75608 whole entry, canonical isoform): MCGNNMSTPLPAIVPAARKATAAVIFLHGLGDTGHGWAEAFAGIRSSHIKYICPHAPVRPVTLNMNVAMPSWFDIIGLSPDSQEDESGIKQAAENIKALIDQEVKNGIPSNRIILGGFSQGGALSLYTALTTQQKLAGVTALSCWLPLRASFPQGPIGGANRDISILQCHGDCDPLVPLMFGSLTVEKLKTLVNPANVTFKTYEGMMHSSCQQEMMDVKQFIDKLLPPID
Method: (§3) Assay Overview: The purpose of this assay was to determine IC50 values of powder samples of test compounds for enzyme of interest activity, and anti-targets in a complex proteomic lysate using a gel-based competitive ABPP assay. In this assay, a complex proteome was incubated with test compound followed by reaction with FP-Rh and SDS-PAGE analysis as described above.
(§4) Protocol Summary: Soluble HeLa cell proteome (50 μL reaction volume, 1 mg/mL in DPBS) or mouse brain membrane proteome (50 μL reaction volume, 1 mg/mL in DPBS) was treated with varying concentrations of test compound (1 μL of a 50× stock in DMSO) for 30 minutes at 37° C. FP-Rh (1 μL of 50× stock in DMSO) was added to a final concentration of 2 μM. The reaction was incubated for 30 minutes at 25° C., quenched with 16 μL 4×SDS-PAGE loading buffer (reducing), separated by SDS-PAGE and visualized by in-gel fluorescent scanning. The percentage activity remaining was determined by measuring the integrated optical density of the enzymes of interest, and anti-target bands relative to a DMSO-only (no compound) control. IC50 values were determined from dose-response curves from three replicates at each inhibitor concentration: 1, 10, 100, 1000, 10000 nM and 0.01, 0.1, 1, 10, 100, 1000, 10000, 50000, and 100000 nM.

human LYPLA2 = target: T6, human LYPLA2 (Homo sapiens, UniProt O95372); experiment: as above; format: biochemical; settings: human LYPLA isoform, three replicates; Table 2 prints no unit, nM; read-out: LYPLA2 IC50
T6 construct: endogenous human LYPLA1/2 in a HeLa soluble proteome; endogenous in cells; host or cells: HeLa (soluble proteome in vitro; cultured cells in situ)
T6 sequence (O95372 whole entry, canonical isoform): as the sequence (Q9WTL7 whole entry) above, with N154A, T193S counted along it
Method: as §3, §4

[2] = Analysis of cytotoxicity (WST-1); format: cell-based, human; settings: human, HeLa cells; HeLa, 48 h, WST-1
Method: Assay Overview: The purpose of this assay was to determine cytotoxicity of powder samples of test compounds. In this assay, HeLa cells in either serum-free medium or medium containing fetal calf serum (FCS) were incubated with test compounds, followed by determination of cell viability. The assay utilized the WST-1 substrate, which was converted into colorimetric formazan dye by the metabolic activity of viable cells. The amount of formed formazan directly correlated to the number of metabolically active cells in the culture.
Protocol Summary: This assay was started by seeding HeLa cells in DMEM medium supplemented with 10% FCS and 1× Pen-Strep-Glutamine in a 96-well plate. Cells were incubated at 37° C. in a humidified incubator until 80% confluent (24 hours). Medium was removed, and 100 μL of fresh medium (serum-free or supplemented with 10% FCS), pre-mixed with DMSO or test compound, was added to each well. Cells were incubated for 48 hours at 37° C. in a humidified incubator and cell viability was determined by the WST-1 assay (Roche) according to manufacturer instructions. CC50 values were determined from dose-response curves from three replicates at each inhibitor concentration (10, 100, 1000, 10000, 100000 nM), compared to six replicates of cells treated with DMSO only.

[3] = 20 μM, mouse brain (mem) proteome

Row | Structure (SMILES) | LYPLA1 in vitro enzyme activity, % @ 20 μM (LYPLA1; [3]) [% @] | LYPLA2 in vitro enzyme activity, % @ 20 μM (LYPLA2; [3]) [% @] | IC50 (mABHD3) [µM] | IC50 (ABHD4) [µM] | inhibition at 0.1 µM (LYPLA1) [%] | inhibition at 1 µM (LYPLA1) [%] | inhibition at 10 µM (LYPLA1) [%] | inhibition at 100 µM (LYPLA1) [%] | inhibition at 0.1 µM (LYPLA2) [%] | inhibition at 1 µM (LYPLA2) [%] | inhibition at 10 µM (LYPLA2) [%] | inhibition at 100 µM (LYPLA2) [%] | Anti-target(s) 0.1 μM [1] | Anti-target(s) 1 μM [1] | Anti-target(s) 10 μM [1] | Anti-target(s) 100 μM [1] | SHs inhibited by Compound 5 (three-fold or greater decrease in signal) (human SHs) | IC50 (human LYPLA1) [nM] | IC50 (human LYPLA2) [nM] | CC50 at 48 h [2] [µM]
1 | COC(=O)C1CCN(C(=O)ON2C(=O)C3CN(Cc4ccc(Oc5ccccc5)cc4)CCN3C2=O)CC1 (centres unmarked) [Compound 31, 1-(1,3-dioxo-7-(4-phenoxybenzyl)hexahydroimidazo[1,5-a]pyrazin-2(3H)-yl) 4-methyl piperidine-1,4-dicarboxylate] | 0 | 0 | > 10 | 8.2 | – | – | – | – | – | – | – | – | – | – | – | – | – | – | – | –
2 | CC(C)(C)OC(=O)N1CCN2C(=O)N(OC(=O)N3CCC(CCc4ccc(Cl)cc4)CC3)C(=O)C2C1 (centres unmarked) [Compound 5, tert-butyl 2-(4-(4-chlorophenethyl)piperidine-1-carbonyloxy)-1,3-dioxohexahydroimidazo[1,5-a]pyrazine-7(1H)-carboxylate] | – | – | – | – | 50 | 80 | 100 | 100 | 50 | 80 | 100 | 100 | ABHD6 | FAAH,; also recorded: ABHD6 | FAAH,; also recorded: ABHD12,; also recorded: ABHD6 | FAAH,; also recorded: ABHD12,; also recorded: MAGL,; also recorded: ABHD6 | ABHD6 and MGLL and ABHD4 and ABHD12 and PLA2G15 and PNPLA4 | – | – | –
3 | O=C(ON1C(=O)C2CN(C(=O)N3CCCCC3)CCN2C1=O)N1CCC(CCc2ccc(Cl)cc2)CC1 (centres unmarked) [Compound 2, 1,3-dioxo-7-(piperidine-1-carbonyl)hexahydroimidazo[1,5-a]pyrazin-2(3H)-yl 4-(4-chlorophenethyl)piperidine-1-carboxylate] | – | – | – | – | 50 | 100 | 100 | 100 | 50 | 100 | 100 | 100 | ABHD6 | FAAH,; also recorded: ABHD6 | FAAH,; also recorded: ABHD12,; also recorded: ABHD4,; also recorded: MAGL,; also recorded: ABHD6 | FAAH,; also recorded: ABHD12,; also recorded: ABHD4,; also recorded: MAGL,; also recorded: ABHD6 | – | 154 | 258 | ≥ 10
